Test results published in patent EP0395672B1, “ANTIVIRAL APPLICATION OF ALPHA OLIGONUCLEOTIDES” (CENTRE NATIONAL DE LA RECHERCHE SCIENTIFIQUE, priority 1987, dated 1989).

What was measured:
L1210/0 = assay: inhibition of tumour cell proliferation; assay type: cell-based, murine; settings: Mus musculus, mean of at least two experiments, read-out: ID50 (dose d'inhibition du développement cellulaire de 50 %)
L1210/BdUrd = assay: inhibition of tumour cell proliferation; assay type: cell-based, murine; settings: Mus musculus; L1210/BdUrd (résistant à BdUrd); mean of at least two experiments; read-out: ID50 (dose d'inhibition du développement cellulaire de 50 %)
MOLT/4F = assay: inhibition of tumour cell proliferation; assay type: cell-based, humaine; settings: Homo sapiens, mean of at least two experiments, read-out: ID50 (dose d'inhibition du développement cellulaire de 50 %)
MT4 = assay: inhibition of tumour cell proliferation; assay type: cell-based, humaine; settings: Homo sapiens, mean of at least two experiments, read-out: ID50 (dose d'inhibition du développement cellulaire de 50 %)
CEM = assay: inhibition of tumour cell proliferation; assay type: cell-based, humaine; settings: Homo sapiens, CCRF-CEM, mean of at least two experiments, read-out: ID50 (dose d'inhibition du développement cellulaire de 50 %)
[1] = target: T1, réverse transcriptase de HIV1 (Human immunodeficiency virus type 1 group M subtype B, UniProt P03366); assay: inhibition of exogenous reverse transcription, poly(A) template with oligo(dT)12-18 primer (Example 2); assay type: biochemical
T1 construct: La réverse transcriptase de HIV1 ci-après abrégé RT a été partiellement purifiée; endogenous in cells; host or cells: HUT-78/HTLV-IIIb producer cell line; virus particles pelleted at 100,000 g and solubilised with Triton X-100
Excerpt: Dans les exemples qui vont suivre les α oligodésoxynucléotides α-dT, α-dT₂, α-dT₄, α-dT₆, α-dT₈, α-dT₁₀, α-dT₁₂, α-dT₁₄, α-dT₁₆ ont été dissous dans de l'eau stérilisée pour les essais de réverse transcriptase. Les concentrations ont été déterminées par spectrophotométrie (coefficient d'absorption molaire : 8880, 17760, 35520, 61800, 70000, 83300, 88800, 109800 et 138400, respectivement). Les α oligodésoxynucléotides α-dC₂₀ et α-dC₃₀ ont été dissous dans de l'eau distillée et les concentrations ont été déterminées également par spectrophotométrie (coefficient d'absorption molaire 178000 et 267000, respectivement). Les solutions étaient conservées à -20° C jusqu'à leur utilisation.
Les réactions de transcription inverse ont été effectuées avec des virus HIV dont partiellement purifiées. Les fluides de culture provenant d'une lignée cellulaire produisant un HUT-78/HTLV-IIIb ont été purifiés par centrifugation à basse vitesse. Des particules virales ont été sédimentées par centrifugation à 100.000 g pendant 30 minutes. Le Pellet viral a été incubé sur glace pendant 30 minutes avec un tampon de solubilisation contenant du triton X-100 0,1 % du dithiothréitol 1mM et du glycérol 50 % et conservé dans des aliquots à -70°C jusqu'à utilisation. Les effets inhibiteurs des α oligodésoxynucléotides contenant des bases thymine sur la réaction de transcription inverse ont été effectués avec une matrice polyrA exogène et un α oligodT₁₂₋₁₈ . Le mélange de réaction (50 µl) contenait du Tris-HCl 50 mM (pH 7,8), du dithiothréitol 5mM, du glutathione 300 µM, du EGTA 500 µM et du KCl 150 mM, du MgCl₂ 5 mM, et 1,25 µg de sérum albumine de bovin, et 1 µM de (méthyl-³H) dTTP (radioactivité spécifique 30 Ci/mmol.) (5 µCi), le mélange comportait également 4,4 µg/ml de polyrA, 7,5 µM d'oligodT et du triton X-100 0,03 %, et 10 µl de solution de composé,(contenant des concentrations variables des composés) et 10 µl de préparation de réverse transcriptase. Les effets inhibiteurs sur la transcription de HIV à l'aide de α-dC₂₀ et α-dC₃₀ ont été déterminés en utilisant une matrice exogène polyI (50 µg/ml) tandis que le mélange oligodC₁₂₋₁₈ servait d'amorce (0,44 U/ml). Le mélange de réaction avec le système polyI.oligodC contenait des réactifs décrits pour le système polyrA. oligodT mais les concentrations de MgCl et KCI ont été ajustées à 2,5 mM et […], respectivement, tandis que le dTTP trifié a été substitué par le (méthyl-³H)dCTP (radioactivité spécifique 19,5 Ci/mmol) (5 µCi). Les mélanges de réactions ont été incubés à 37°C pendant 0 à 60 minutes à quel moment 100 µl d'ADN de thymus de veau (150 µg/ml), 2 ml de Na₄P₂O₇ (0,1 M dans HCL 1 N) et 2 ml de TCA (10 % v/v) ont été ajoutés. Les solutions ont été gardées sur glace pendant au moins 30 minutes, après lesquelles la matière acide insoluble a été lavée et analysée quant à sa radioactivité.
La réverse transcriptase de HIV1 ci-après abrégé RT a été partiellement purifiée et les oligomères α ont été étudiés en fonction de leur faculté à servir d'amorce sur une matrice poly(A) dans une réaction de transcription inverse exogène.
Ces pourcentages ont été calculés de la même manière que précédemment par mesure de radioactivité, laquelle indique la quantité d'incorporation de méthyl ³H dTTP (valeurs en Cpm).

Structure (SMILES) | IC50 (L1210/0) [µM] | IC50 (L1210/BdUrd) [µM] | IC50 (MOLT/4F) [µM] | IC50 (CEM) [µM] | IC50 (MT4) [µM] | pourcentages d'inhibitions de la réaction exogène de transcription inverse ([1]; 0.16 uM oligomer, 7,5 μM oligo(dT)12-18 primer) [%] | pourcentages d'inhibitions de la réaction exogène de transcription inverse ([1]; 0.8 uM oligomer, 7,5 μM oligo(dT)12-18 primer) [%] | pourcentages d'inhibitions de la réaction exogène de transcription inverse ([1]; 4 uM oligomer, 7,5 μM oligo(dT)12-18 primer) [%] | pourcentages d'inhibitions de la réaction exogène de transcription inverse ([1]; 20 uM oligomer, 7,5 μM oligo(dT)12-18 primer) [%] | pourcentages d'inhibitions de la réaction exogène de transcription inverse ([1]; 100 uM oligomer, 7,5 μM oligo(dT)12-18 primer) [%] | EC50 ([1]; 7,5 μM oligo(dT)12-18 primer, poly(A) template, read-out: ED50 (dose requise pour inhiber la réaction de transcription inverse de 50 %)) [µM] | inhibition de la réaction de transcription inverse ([1]; result in words, in presence of primer βdT₁₂₋₁₈)
Nc1ncnc2c1ncn2[C@@H]1C[C@H](O)[C@@H](CO)O1 [α-2'-dAdo] | > 500 | > 500 | > 500 | > 500 | > 500 |  |  |  |  |  |  | 
Cc1cn([C@@H]2C[C@H](O)[C@@H](CO)O2)c(=O)[nH]c1=O [α-2'-dThd] | > 500 | > 500 | > 500 | > 500 | > 500 |  |  |  |  |  |  | 
Cc1cn([C@@H]2C[C@H](O)[C@@H](CO)O2)c(=O)[nH]c1=O [αdT] |  |  |  |  |  | 22 | 8 | 19 | 46 | 23 | > 100 | aucune inhibition significative
Nc1ncnc2c1ncn2[C@H]1C[C@H](O)[C@@H](CO)O1 [β dAdo, reference compound] | > 500 | > 500 | > 500 | 189 ± 19 | > 500 |  |  |  |  |  |  | 

The next lines start with results.

IC50 (L1210/0) [µM] | IC50 (L1210/BdUrd) [µM] | IC50 (MOLT/4F) [µM] | IC50 (CEM) [µM] | Structure (SMILES) | IC50 (MT4) [µM] | pourcentages d'inhibitions de la réaction exogène de transcription inverse ([1]; 0.16 uM oligomer, 7,5 μM oligo(dT)12-18 primer) [%] | pourcentages d'inhibitions de la réaction exogène de transcription inverse ([1]; 0.8 uM oligomer, 7,5 μM oligo(dT)12-18 primer) [%] | pourcentages d'inhibitions de la réaction exogène de transcription inverse ([1]; 4 uM oligomer, 7,5 μM oligo(dT)12-18 primer) [%] | pourcentages d'inhibitions de la réaction exogène de transcription inverse ([1]; 20 uM oligomer, 7,5 μM oligo(dT)12-18 primer) [%] | pourcentages d'inhibitions de la réaction exogène de transcription inverse ([1]; 100 uM oligomer, 7,5 μM oligo(dT)12-18 primer) [%] | EC50 ([1]; 7,5 μM oligo(dT)12-18 primer, poly(A) template, read-out: ED50 (dose requise pour inhiber la réaction de transcription inverse de 50 %)) [µM] | inhibition de la réaction de transcription inverse ([1]; result in words, in presence of primer βdT₁₂₋₁₈)
> 500 | > 500 | > 500 | > 500 | Nc1ccn([C@@H]2C[C@H](O)[C@@H](CO)O2)c(=O)n1 [α-2'-dC] | > 500 |  |  |  |  |  |  | 
> 500 | > 500 | > 500 | > 500 | Nc1nc2c(ncn2[C@@H]2C[C@H](O)[C@@H](CO)O2)c(=O)[nH]1 [α-2'-dGuo] | > 500 |  |  |  |  |  |  | 
58.2 ± 10.9 | 55.5 ± 6.8 | 79.5 ± 9.2 | 22.1 ± 0.6 | Nc1nc2c(ncn2[C@H]2C[C@H](O)[C@@H](CO)O2)c(=O)[nH]1 [β dGuo, reference compound] | 55.3 ± 5.3 |  |  |  |  |  |  | 
29 ± 1.9 | > 500 | > 500 | 24.7 ± 3.42 | Cc1cn([C@H]2C[C@H](O)[C@@H](CO)O2)c(=O)[nH]c1=O [β dThd, reference compound] | 191 ± 7 |  |  |  |  |  |  | 
